# Data taken from paper PMC3925156, “Β-Amylase from Starchless Seeds of Trigonella Foenum-Graecum and Its Localization in Germinating Seeds” (PLoS ONE, 2014).
# Target: T1, Fenugreek β-amylase
# T1 construct: gene BMY1; native, purified from ungerminated seeds (acetone, DEAE-cellulose, glycogen precipitation)
# Assay: starch hydrolysis assay, Dixon plot
# Format: biochemical, Trigonella foenum-graecum
# Conditions: competitive; starch substrate, pH 5.0, 30°C, 10 min preincubation
row,Ki [mM],Structure (SMILES)
1,2.32,OC[C@H]1O[C@@](CO)(O[C@H]2O[C@H](CO)[C@@H](O)[C@H](O)[C@H]2O)[C@@H](O)[C@@H]1O [sucrose]
2,3.97,OC[C@H]1O[C@@H]2O[C@H]3[C@H](O)[C@@H](O)[C@@H](O[C@H]4[C@H](O)[C@@H](O)[C@@H](O[C@H]5[C@H](O)[C@@H](O)[C@@H](O[C@H]6[C@H](O)[C@@H](O)[C@@H](O[C@H]7[C@H](O)[C@@H](O)[C@@H](O[C@H]1[C@H](O)[C@H]2O)O[C@@H]7CO)O[C@@H]6CO)O[C@@H]5CO)O[C@@H]4CO)O[C@@H]3CO [α-cyclodextrin]
